According to publication PMC5415599, “New Potent Membrane-Targeting Antibacterial Peptides from Viral Capsid Proteins” (Frontiers in Microbiology, 2017):
Where two headings read alike, the source gives them in different places. Where no end group is shown, it is not given here.

Tests used:
[1] = system: Escherichia coli (E. coli) ATCC 25922; format: cell-based; details: MHB, 5 × 10^5 CFU/mL, 37°C, 18 h, triplicate
Procedure: (§1) The antibacterial activity of the vCPPs was tested using a standard broth microdilution procedure ([Wikler et al., 2006]; [Wiegand et al., 2008]) to evaluate the bacterial growth inhibition and determine the minimal inhibitory concentration (MIC). The assay was performed using the following strains: Gram-positive Staphylococcus aureus (S. aureus) ATCC 25923 and methicillin-resistant Staphylococcus aureus (MRSA) ATCC 33591, and Gram-negative Escherichia coli (E. coli) ATCC 25922 and Pseudomonas aeruginosa (P. aeruginosa) ATCC 27853, obtained from American Type Culture Collection (ATCC) (Manassas, VA, USA). Bacterial suspensions were prepared by direct suspension of morphologically similar colonies on Mueller Hinton Broth (MHB) from BD (Franklin Lakes, NJ, USA) to a final concentration of 1 × 10^6 CFU/mL, and added to a sterile 96-well microtiter polypropylene plate from Corning (Corning, NY, USA) containing two-fold dilutions of each peptide. Final bacterial concentration was 5 × 10^5 CFU/mL whereas peptide concentrations ranged between 100 and 0.78 μM. The 96-well plate was incubated at 37°C for 18 h. The MIC was defined as the lowest peptide concentration required to inhibited visible bacterial growth. The assay was performed in triplicate.

[2] = system: Pseudomonas aeruginosa (P. aeruginosa) ATCC 27853; format: cell-based; details: MHB, 5 × 10^5 CFU/mL, 37°C, 18 h, triplicate
Procedure: as §1

[3] = system: methicillin-resistant Staphylococcus aureus (MRSA) ATCC 33591; format: cell-based; details: MHB, 5 × 10^5 CFU/mL, 37°C, 18 h, triplicate
Procedure: as §1

[4] = system: S. aureus; format: cell-based, Staphylococcus aureus; details: for bactericidal or bacteriostatic: bactericidal when MBC is equal or lower than four-fold MIC; for MBC: lowest concentration causing ≥99.9% cell death of the inoculum, TSA plates, 37°C, 24 h, triplicate
Procedure: (§2) After the MIC assay, aliquots were removed from the wells with no visible bacterial growth, serially diluted in MHB, plated on nutrient-rich trypcase soy agar (TSA) plates from bioMérieux (Marcy l’Etoile, France), and incubated at 37°C for 24 h. […] The assay was performed in triplicate.

[5] = system: P. aeruginosa; format: cell-based; details: for bactericidal or bacteriostatic: bactericidal when MBC is equal or lower than four-fold MIC; for MBC: lowest concentration causing ≥99.9% cell death of the inoculum, TSA plates, 37°C, 24 h, triplicate
Procedure: as §2

[6] = system: S. aureus; assay: Time-kill assay; format: cell-based, Staphylococcus aureus; details: peptide at its MBC, after 30 min, MHB, 37°C, relative to control without peptide, three independent experiments
Procedure: (§3) For viral protein-derived peptides displaying bactericidal activity, bacterial killing kinetics was determined by a conventional method based on colony counts obtained after different times of exposure of the bacterial cells to the peptides ([Barry et al., 1999]). The assay was performed using S. aureus and P. aeruginosa as representative strains of Gram-positive and Gram-negative bacteria, respectively. Bacterial suspensions prepared in MHB at 5 × 10^5 CFU/mL were treated with each peptide at final concentrations corresponding to their MBC, and incubated at 37°C and 200 rpm. A control of bacterial suspensions without peptide was performed under the same conditions. Aliquots of untreated and peptide-treated bacterial suspensions were withdrawn at 0, 15, 30, 60, 120, and 180 min, serially diluted in MHB, and plated on TSA plates. Bacterial colonies were counted after 24 h of incubation at 37°C. Viable bacteria (in CFU/mL) are reported as percentage of the control. The assay was performed in triplicate.

[7] = system: P. aeruginosa; assay: Time-kill assay; format: cell-based, Pseudomonas aeruginosa; details: peptide at its MBC, after 180 min, MHB, 37°C, relative to control without peptide, three independent experiments
Procedure: as §3

[8] = system: P. aeruginosa; assay: SYTOX Green uptake assay (membrane permeabilization, flow cytometry); format: cell-based, Pseudomonas aeruginosa; details: P. aeruginosa 5 × 10^5 CFU/mL in 10 mM HEPES pH 7.4, 150 mM NaCl, 1 h, 37°C, twofold dilutions starting at MBC
Procedure: SYTOX® Green (Invitrogen, Carlsbad, CA, USA) is a high-affinity nucleic acid stain that only penetrates cells with compromised plasma membranes and emits fluorescence when bound to DNA ([Roth et al., 1997]). A SYTOX Green uptake assay ([Torcato et al., 2013]; [Sani et al., 2015]) was performed using P. aeruginosa to study the effect of viral protein-derived peptides on those bacterial membranes. Bacterial suspensions at 1 × 10^8 CFU/mL in MHB were centrifuged for 10 min at 4000 × g and the pellet resuspended in 10 mM HEPES buffer, pH 7.4, containing 150 mM NaCl, to a final concentration of 5 × 10^5 CFU/mL. The bacterial suspensions were incubated for 1 h at 37°C and 200 rpm, with twofold dilutions of each bactericidal viral protein-derived peptide in a range of concentrations starting at their corresponding MBC. Peptide-treated bacterial cells were incubated with 0.1 μM of SYTOX Green for 10 min, on ice and protected from light. The fluorescence emission intensity signal was measured by flow cytometry (excitation with 488 nm laser and detection at 530 nm with 30 nm bandpass) and a total of 50 000 events were recorded. […] The percentage of permeabilized cells was determined considering that untreated bacterial cells (negative control) are 0% permeabilized and bacterial cells treated with isopropyl alcohol (positive control) are 100% permeabilized. […]

[9] = system: P. aeruginosa cells; assay: Atomic force microscopy (AFM) imaging; format: cell-based, Pseudomonas aeruginosa; details: 1 h, 37°C
Procedure: Atomic force microscopy (AFM) imaging was used to study the effect of the bactericidal viral protein-derived peptides on P. aeruginosa cells. Bacterial suspensions at 1 × 10^8 CFU/mL in MHB were centrifuged for 10 min at 4000 × g, and the pellet resuspended in HEPES buffer to a final concentration of 1 × 10^7 CFU/mL. The bacterial suspensions were treated with each peptide at concentrations corresponding to their MBC, as well as the concentrations above and below their MBC, and incubated for 1 h at 37°C and 200 rpm. As control, untreated bacterial suspension was also incubated using the same conditions. A 200 μL droplet of each test sample was applied on a poly-L-lysine-coated glass slide and allowed to deposit for 20 min at room temperature. Each sample was then rinsed 10 times with sterile Milli-Q water and allowed to dry for 30 min at room temperature. AFM images were acquired using a JPK NanoWizard II (Berlin, Germany) mounted on a Zeiss Axiovert 200 inverted microscope (Göttingen, Germany). Measurements were carried out in air and in intermittent contact mode using uncoated silicon ACL cantilevers from APPNano (Mountain View, CA, USA). ACL cantilevers had typical resonance frequencies of 190 kHz and a spring constant of 45 N/m. Bacteria were first visualized through the optical microscope before being selected for imaging. On average, 14 untreated bacteria and 10 individual bacterial cells were imaged for each peptide concentration, with a total area of 4 μm × 4 μm from three independent bacterial preparation slides. Height images were recorded and treated with JPK SPM data processing 5.1.8.

[10] = system: Staphylococcus aureus (S. aureus) ATCC 25923; details: previous screen, ref Freire et al., 2015a; cited from earlier work
[11] = system: Pseudomonas aeruginosa (P. aeruginosa) ATCC 27853; details: previous screen, ref Freire et al., 2015a; cited from earlier work
[12] = system: Staphylococcus aureus (S. aureus) ATCC 25923; format: cell-based; details: MHB, 5 × 10^5 CFU/mL, 37°C, 18 h, triplicate
Procedure: as §1

[13] = system: MRSA; format: cell-based, Staphylococcus aureus; details: for bactericidal or bacteriostatic: bactericidal when MBC is equal or lower than four-fold MIC; for MBC: lowest concentration causing ≥99.9% cell death of the inoculum, TSA plates, 37°C, 24 h, triplicate
Procedure: as §2

[14] = system: E. coli; format: cell-based, Escherichia coli; details: for bactericidal or bacteriostatic: bactericidal when MBC is equal or lower than four-fold MIC; for MBC: lowest concentration causing ≥99.9% cell death of the inoculum, TSA plates, 37°C, 24 h, triplicate
Procedure: as §2

Substance | MIC [1] [µM] | MIC [2] [µM] | MIC [3] [µM] | bactericidal or bacteriostatic [4] | MBC [4] [µM] | bactericidal or bacteriostatic [5] | MBC [5] [µM] | reduction in bacterial viability [6] [%] | reduction of bacterial viability [7] [%] | membrane permeabilization (SYTOX Green) [8] | morphological changes of cell envelope (AFM) ([9]; all concentrations tested (MBC, above and below)) | MIC [10] [µM] | MIC [11] [µM] | MIC [12] [µM] | bactericidal or bacteriostatic [13] | MBC [13] [µM] | bactericidal or bacteriostatic [14] | MBC [14] [µM] | morphological changes of cell envelope (AFM) ([9]; 1.56 μM, a concentration below MBC) | morphological changes of cell envelope (AFM) ([9]; treatment with MBC, or higher)
GRRGPRRANQNGTRRRRRRT-NH2 [vCPP 1779] | 25 | 25 | >100 | – | – | – | – | – | – | – | – | – | – | – | – | – | – | – | – | –
INWKKWWQVFYTVV-NH2 [vAMP 059] | – | – | – | bactericidal | 1.56 | bactericidal | 6.25 | 99.9 | 99.7 | increase in membrane permeabilization with increasing peptide concentrations | pronounced collapse in P. aeruginosa cell envelope | 0.78 | 6.25 | – | – | – | – | – | – | –
KKRYKKKYKAYKPYKKKKKF-NH2 [vCPP 0275] | 12.5 | 100 | 50 | – | – | – | – | – | – | – | – | – | – | 25 to 50 | – | – | – | – | – | –
RPRRRATTRRRITTGTRRRR-NH2 [vCPP 0667] | 12.5 | 25 | 100 | – | – | – | – | – | – | – | – | – | – | 50 | – | – | – | – | – | –
RRLTLRQLLGLGSRRRRRSR-NH2 [vCPP 0769] | 25 | 3.13 | 3.13 | only inhibited bacterial growth | >100 | bactericidal | 6.25 | – | – | – | – | – | – | 3.13 | only inhibited bacterial growth | >100 | bactericidal | 50 | – | –
SPRRRTPSPRRRRSQSPRRR-NH2 [vCPP 0417] | 25 | 100 | >100 | – | – | – | – | – | – | – | – | – | – | >100 | – | – | – | – | – | –
WRRRYRRWRRRRRWRRRPRR-NH2 [vCPP 2319] | 3.13 | 3.13 | 1.56 | bactericidal | 3.13 | bactericidal | 3.13 | 90.9 | 97 | increase in membrane permeabilization with increasing peptide concentrations | – | – | – | 1.56 | bactericidal | 3.13 | bactericidal | 3.13 | only minor alterations on bacterial topography | marked collapse of the membrane structure
